Starred links: 1 amine or outer side, 2 acyl side, 3 side chain; linkers in the order of their positions; H or OH if unused. Non-standard residues stand in square brackets, D forms with d. Residues, ends and D or L forms follow the SMILES beside them. *: point of attachment. Dolaproine = CO[C@@H]([C@@H]1CCCN1)[C@@H](C)C(=O)O; Dil = CC[C@H](C)[C@H](NC)[C@@H](CC(=O)O)OC; PABC = O=C(OCc1ccc(N[*:1])cc1)[*:2]; X1 = O=C(CCCC(=O)*)ON1C(=O)CCC1=O; X2 = C[C@@H](N*)[C@@H](O)c1ccccc1; Cit = NC(=O)NCCC[C@H](N)C(=O)O; NMeV = CN[C@H](C(=O)O)C(C)C
Tested on: PC-3M-luc-C6 human prostate carcinoma
Experiment: Intracardially implanted PC-3M-Luc-C6 metastatic model, BLI and survival (Example 6)
Type: in vivo, Mouse
Details: for Day 26 T/C: BLI total bone signal; for tumor growth delay: evaluation size 9.0E+07 p/s
Description: The purpose of this study was to evaluate the efficacy and overall impact of Bicycle toxin conjugate BT5528 against established intracardially implanted PC-3M-luc-C6 human prostate carcinoma in male nude mice, with treatment regimens starting at different disease stages (Day 14 and Day 21). Response was monitored using bioluminescence imaging (BLI) on Days 14, 21, 28, 35, and 42 coupled with traditional survival endpoints.
BT5528: • Formulation pH: 5.4 • High Dose Formulation: 0.15 mg/mL • Vehicle: 50 mM Acetate, 10% Sucrose • Storage: 4° C. • Dose volume: 0.01 mL/g
All procedures carried out in this experiment were conducted in compliance with the applicable laws, regulations and guidelines of the National Institutes of Health (NIH). • Species: Mouse • Strain: Envigo nude mice (Hsd:Athymic Nude-Foxn1^nu) • Age at implant: 5-6 weeks • Sex: male • Min weight (D14): 24.9 g • Mean weight (D14): 28.4 g (range of group means, 27.7-28.8 g)
Animals were anesthetized with an IP injection of a ketamine (100 mg/kg)/xylazine (6 mg/kg) cocktail. When the animals were non-responsive (determined by a toe pinch test), 100 μl of cell suspension (3.0 E+06 cells) were drawn into a 1 ml syringe and a 27×½″ gauge needle was then attached. A small air bubble is created in the plunger side of the syringe before injection. The needle was then inserted slowly through the center of the second intercostal space, approximately 3 mm to the left of the sternum and aimed centrally until a continuous pulsation of bright red oxygenated blood into the needle hub was observed. 100 μl of cell suspension was then slowly injected over 5 seconds. A fresh needle and syringe were used for each animal.
Animals were injected with firefly D-luciferin (150 mg/kg) by IP administration according to body weight (0.2 ml/20 g). The success of the intracardiac injections was verified by a one minute bioluminescence scan using large binning (high sensitivity) of the CCD chip immediately after the injection. Mice with signals from the entire body, from snout to base of the tail, were deemed to have been successfully injected, while mice with signals localized to the chest area only, or not fully extending into the snout, were triaged from the study immediately.
All mice were sorted into study groups based on body weight and BLI-derived estimation of tumor burden.
BLI was performed using an IVIS S5 Lumina system (PerkinElmer, Waltham, Mass.). Animals were imaged five at a time under 1-2% isoflurane gas anesthesia. Each mouse was injected IP with 150 mg/kg (15 mg/ml) D-luciferin and imaged in the prone then supine positions 10 minutes after the injection. Large binning of the CCD chip was used, and the exposure time was adjusted (10 seconds to 2 minutes) to obtain at least several hundred counts per image and to avoid saturation of the CCD chip. BLI images were collected on Days 0, 7, 14, 21, 28, 35, 42, 49, 56 and 63 post-implant.
Images were analyzed using Living Image 4.7.1 (PerkinElmer, MA) software. Each unique tissue signal was circled manually and labeled based on anatomical site as mandible or hind limb for both prone and supine images. For limbs, the signal was also designated as being from the right or left side of the mouse.
Signal flux (photons/sec) were calculated for each unique metastatic signal and exported for all ROIs to facilitate analyses between groups.
Study was terminated on Day 78. All BLI endpoint calculations were derived from total bone values. The BLI background signal for this study was measured at 1.20 E+05 p/s. An animal was credited with a partial regression if the BLI signal fell below half the staging BLI signal level. Similarly, a complete regression (CR) was credited if the BLI signal fell below the background level, and a tumor-free survivor was if the BLI signal was below background on last day of imaging (Day 63), with no evidence of disease at necropsy. […]

[1] = 1.5 mg/kg IV Q7D × 4 starting Day 14
[2] = 1.5 mg/kg IV Q7D × 4 starting Day 21

`CC[C@H](C)[C@@H]([C@@H](CC(=O)N1CCC[C@H]1[C@H](OC)[C@@H](C)C(=O)N[C@H](C)[C@@H](O)c1ccccc1)OC)N(C)C(=O)[C@@H](NC(=O)[C@H](C(C)C)N(C)C(=O)OCc1ccc(NC(=O)[C@H](CCCNC(N)=O)NC(=O)[C@@H](NC(=O)CCCC(=O)ON2C(=O)CCC2=O)C(C)C)cc1)C(C)C` [BT5528] (X1-V[Cit][PABC][NMeV]V[Dil][Dolaproine]-X2) was tested, and the “incidence of partial regressions” value [1] was 60%, the “increased lifespan (ILS)” value [1] was 177.3% and the “Day 26 T/C” value [1] was 1%. The tumor growth delay [1] was greater than 35.1 days, the “increased lifespan (ILS)” value [2] was 145.5% and the “less incidence of partial regressions than with Day 14 start” value [2] was 40%. For the same molecule, the “Day 26 T/C” value [2] was 3.4%, the tumor growth delay [2] was greater than 35.1 days and the “bone tumor cell burden and survival” value (4 weekly treatment cycles) was “reduced the bone tumor cell burden significantly and extended the survival of the mice”. For the same molecule, the “mice at the end of the study (D78) without observable (macroscopic) disease” value (mouse, in vivo) was 1 mouse.

From patent US20220184222A1, “BICYCLE TOXIN CONJUGATES AND USES THEREOF” (BicycleTx Limited, priority 2019, published 2022)
